Assay results reported in patent US12377071B2, “Methods of treating conditions related to the S1P1 receptor” (Arena Pharmaceuticals, Inc., priority 2015, dated 2025).

What was measured:
subjects = experiment: Phase 1 single dose study: safety and tolerability
Description: A phase 1 study with Compound 1 was conducted with single dosing at 0.1 mg, 0.35 mg, 1 mg, 3 mg, and 5 mg. Compound 1 was administered as the L-arginine salt.

male Sprague-Dawley rats = details: cited from earlier work
[1] = system: peripheral blood lymphocyte (PBL) counts; experiment: Phase 1 single dose study: peripheral blood lymphocyte counts; type: in vivo, human
Description: Compound 1 was administered as the L-arginine salt.

O=C(O)C[C@H]1CCc2c1[nH]c1ccc(OCc3ccc(C4CCCC4)c(C(F)(F)F)c3)cc21 [Compound 1, (R)-2-(7-(4-cyclopentyl-3-(trifluoromethyl)benzyloxy)-1,2,3,4-tetrahydrocyclopenta [b]indol-3-yl)acetic acid]
Vital signs, ECGs, pulmonary function tests, ophthalmoscopy, clinical laboratory tests (subjects; in vivo): no other clinically significant safety issues | Maximum tolerated dose (subjects; single dosing): 3 mg | Deaths or serious adverse events (subjects; single dosing 0.1 to 5 mg): no deaths or serious adverse events | Bradycardia (male Sprague-Dawley rats): no or substantially no bradycardia | Persistence of PBL nadir ([1]; single dose): 24 h | Time after dosing by which total PBL counts were reduced ([1]; single dose): 2 to 4 h | Time of PBL nadir ([1]; single dose): ≤ 8 h | PBL counts reduced by ([1]; single dose 3 mg): ~40% | PBL counts reduced by ([1]; single dose 5 mg): ~55% | Recovery of PBL counts to baseline ([1]; single dose, after the nadir): 4 days | Absolute number of peripheral blood B cells, T cells, NK cells, and all T cell subsets except TEM cells ([1]; single dosing at 3 and 5 mg): dose responsive decline
